Reference: patent US8586505B2 (SDS Biotech K. K., priority 2009, dated 2013)

How the values were obtained:
Phytophthora infestans = assay: whole plant or invertebrate; format: in vivo; settings: in Solanum lycopersicum, 96 h, read-out: Determination of control effect (preventive value)
[1] = tested on: Pseudoperonospora cubensis; assay: Test of examining control effect on Pseudoperonospora cubensis (potted cucumber plants); format: in vivo; settings: 96 h, 10% wettable powder adjusted to 125 ppm, 15 ml/pot sprayed on potted cucumber plants one day before spray inoculation, assessed after 1 day wet chamber and 3 days greenhouse, read-out: Determination of control effect (preventive value) on Pseudoperonospora cubensis
Procedure, shortened: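 Cucumber plants (Sagamihanjiro, 2.5-leaf stage) sprayed with 125 ppm compound solution from 10% wettable powder, 15 ml/pot. One day later, spray-inoculated with P. cubensis conidia (1.0×10^4 cells/ml), kept 1 day at 21° C wet, then 3 days in greenhouse. Preventive value derived from lesion area relative to untreated plants.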

Tetranychus urticae eggs = assay: Test of examining effect on Tetranychus urticae eggs (ovicidal rate); format: in vivo; settings: 144 h, 0.4 ml sprayed, unhatched eggs counted six days later, read-out: Determination (ovicidal rate)
Method: Thereafter, the released female adults were removed. […] Six days later, the number of unhatched eggs was counted, and an ovicidal rate was calculated.

Sphaerotheca fuliginea = assay: Test of examining control effect on Sphaerotheca fuliginea (potted cucumber plants); format: in vivo; settings: Podosphaera fuliginea, 336 h; 10% wettable powder adjusted to 125 ppm, 15 ml/pot sprayed on potted cucumber plants one day before spray inoculation; assessed after 14 days in greenhouse; read-out: Determination of control effect (preventive value) on Sphaerotheca fuliginea
Procedure, shortened: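 Cucumber plants (Sagamihanjiro, 2nd leaf stage) sprayed with 125 ppm compound (from 10% wettable powder), inoculated one day later with S. fuliginea conidia (1.0×10^5 cells/ml); lesion area scored after 14 days in greenhouse. Preventive value vs untreated; ≥60% high, <60% low control.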

Row | SMILES | pest or weed control at 125 ppm (Phytophthora infestans) [%] | pest or weed control at 125 µg/mL [1] [%] | pest or weed control at 250 ppm (Tetranychus urticae eggs) [%] | pest or weed control at 125 µg/mL (Sphaerotheca fuliginea) [%] | melting point [°C]
1 | C(#Cc1ccccc1)CCNc1ncnc2sccc12 [compound 10, 4-(4-Phenyl-3-butynylamino)thieno[2,3-d]pyrimidine] | 60 to 100 | 60 to 100 | 60 to 80 | 60 to 100 | 
2 | Clc1ccc(C#CCCNc2ncnc3sccc23)cc1 [compound 16] | 0 to 60 | 60 to 100 | 60 to 80 | 60 to 100 | 
3 | Cc1ccc(C#CCCNc2ncnc3sccc23)cc1 [compound 19] | 0 to 60 | 60 to 100 | 60 to 80 | 60 to 100 | 
4 | CC(C)(C)c1ccc(C#CCCNc2ncnc3sccc23)cc1 [compound 20] | 0 to 60 | 60 to 100 | 60 to 80 | 60 to 100 | 
5 | COc1cccc(C#CCCNc2ncnc3sccc23)c1 [compound 22] | 0 to 60 | 60 to 100 | 60 to 80 | 60 to 100 | 
6 | O=[N+]([O-])c1ccccc1C#CCCNc1ncnc2sccc12 [compound 38] | 60 to 100 | 60 to 100 | 60 to 80 |  | 
7 | C=C(C#CCCNc1ncnc2ccccc12)c1ccccc1 [compound 95] | 0 to 60 | 60 to 100 | 60 to 80 | 0 to 60 | 
8 | C(#Cc1ccc(C2CCCCC2)cc1)CCNc1ncnc2ccccc12 [compound 109] | 0 to 60 | 60 to 100 | 80 to 95 | 60 to 100 | 
9 | FC(F)=Cc1ccc(C#CCCNc2ncnc3ccccc23)cc1 [compound 113] | 0 to 60 | 60 to 100 | ≥ 95 | 60 to 100 | 
10 | OCc1cc(C#CCCNc2ncnc3ccccc23)co1 [compound 209] | 0 to 60 | 60 to 100 |  | 0 to 60 | 135 to 147
11 | CCOC(=O)c1cnc(C#CCCNc2ncnc3ccccc23)s1 [compound 213] | 0 to 60 | 60 to 100 |  | 60 to 100 | 113 to 114
12 | CCOC(=O)c1sc(C#CCCNc2ncnc3ccccc23)nc1C [compound 214] | 0 to 60 | 60 to 100 |  | 60 to 100 | 139 to 140
13 | COc1cccc(Oc2nc(C#CCCNc3ncnc4ccccc34)cs2)c1 [compound 216] | 60 to 100 | 60 to 100 |  | 60 to 100 | 77 to 79
14 | COc1ccc(Oc2nc(C#CCCNc3ncnc4ccccc34)cs2)cc1 [compound 217] | 0 to 60 | 60 to 100 |  | 60 to 100 | 150 to 152
15 | FC(F)(F)c1ccccc1Oc1nc(C#CCCNc2ncnc3ccccc23)cs1 [compound 218] | 0 to 60 | 60 to 100 |  | 0 to 60 | 159 to 161
16 | FC(F)(F)c1cccc(Oc2nc(C#CCCNc3ncnc4ccccc34)cs2)c1 [compound 219] | 0 to 60 | 60 to 100 |  | 60 to 100 | 106 to 108
17 | FC(F)(F)c1ccc(Oc2nc(C#CCCNc3ncnc4ccccc34)cs2)cc1 [compound 220] | 0 to 60 | 0 to 60 |  | 60 to 100 | 137 to 139
18 | N#Cc1cccc(Oc2nc(C#CCCNc3ncnc4ccccc34)cs2)c1 [compound 222] | 0 to 60 | 60 to 100 |  | 60 to 100 | 137 to 139
19 | N#Cc1ccc(Oc2nc(C#CCCNc3ncnc4ccccc34)cs2)cc1 [compound 223] | 60 to 100 | 60 to 100 |  | 60 to 100 | 55 to 57
20 | Fc1cccc(Oc2nc(C#CCCNc3ncnc4ccccc34)cs2)c1 [compound 225] | 60 to 100 | 60 to 100 |  | 60 to 100 | 134 to 136

Row | SMILES | pest or weed control at 125 ppm (Phytophthora infestans) [%] | pest or weed control at 125 µg/mL [1] [%] | pest or weed control at 250 ppm (Tetranychus urticae eggs) [%] | pest or weed control at 125 µg/mL (Sphaerotheca fuliginea) [%] | melting point [°C]
21 | CC(CC#Cc1ccccc1Cl)Nc1ncnc2sccc12 (stereo not shown) [compound 231] | 60 to 100 | 60 to 100 | 60 to 80 | 60 to 100 | 
22 | CC(CC#Cc1ccc(Cl)cc1)Nc1ncnc2sccc12 (stereo not shown) [compound 232] | 60 to 100 | 60 to 100 | 80 to 95 | 60 to 100 | 
23 | CC(CC#Cc1ccccc1C(F)(F)F)Nc1ncnc2sccc12 (stereo not shown) [compound 233] | 60 to 100 | 60 to 100 | 80 to 95 | 60 to 100 | 
24 | CC(CC#Cc1ccc(C(F)(F)F)cc1)Nc1ncnc2sccc12 (stereo not shown) [compound 235] | 60 to 100 | 60 to 100 | ≥ 95 | 60 to 100 | 
25 | CC(CC#Cc1ccc(S(F)(F)(F)(F)F)cc1)Nc1ncnc2sccc12 (stereo not shown) [compound 238] | 60 to 100 | 60 to 100 | ≥ 95 | 60 to 100 | 
26 | Cc1ccccc1C#CCC(C)Nc1ncnc2sccc12 (stereo not shown) [compound 239] | 60 to 100 | 60 to 100 | 80 to 95 | 60 to 100 | 
27 | CCc1ccc(C#CCC(C)Nc2ncnc3sccc23)cc1 (stereo not shown) [compound 240] | 60 to 100 | 60 to 100 | 60 to 80 |  | 
28 | CC(CC#Cc1ccc(C(C)C)cc1)Nc1ncnc2sccc12 (stereo not shown) [compound 241] | 60 to 100 | 60 to 100 | ≥ 95 | 60 to 100 | 
29 | CC(CC#Cc1ccc(Cl)cc1CO)Nc1ncnc2sccc12 (stereo not shown) [compound 245] | 60 to 100 | 60 to 100 | 80 to 95 | 60 to 100 | 
30 | CC(CC#Cc1c(Cl)cc(C(F)(F)F)cc1Cl)Nc1ncnc2sccc12 (stereo not shown) [compound 262] |  | 60 to 100 | ≥ 95 | 60 to 100 | 
31 | CC(CC#Cc1cscn1)Nc1ncnc2ccccc12 (stereo not shown) [compound 291] | 0 to 60 | 60 to 100 |  | 60 to 100 | 142 to 145
32 | C(#Cc1ccccc1)CC(Nc1ncnc2ccccc12)c1ccccc1 (stereo not shown) [compound 301, 4-[(1,4-diphenyl-3-butynyl)amino]quinazoline] | 0 to 60 | 0 to 60 |  | 0 to 60 | 141 to 143
33 | FC(F)(F)c1ccccc1C#CCC(Nc1ncnc2ccccc12)c1ccccc1 (stereo not shown) [compound 302] | 0 to 60 | 0 to 60 |  | 0 to 60 | 150 to 152
34 | FC(F)(F)c1ccccc1C#CCCNc1ncnc2cc(Cl)ccc12 [compound 308] | 0 to 60 | 60 to 100 |  | 60 to 100 | 153 to 154
35 | COCc1ccccc1C#CCCNc1ncnc2ccc(I)cc12 [compound 322] | 0 to 60 | 60 to 100 |  | 60 to 100 | 121 to 123
36 | COCc1ccccc1C#CCCNc1ncnc2c(Cl)cc(Cl)cc12 [compound 338] | 0 to 60 | 60 to 100 |  | 0 to 60 | 161 to 162
37 | Clc1ncnc(NCCC#Cc2ccccc2)c1Cl [compound 357] | 60 to 100 | 60 to 100 |  | 0 to 60 | 122 to 123
38 | Clc1cc(NCCC#Cc2ccccc2)ncn1 [compound 358] | 0 to 60 | 0 to 60 |  | 60 to 100 | 118 to 120
39 | Clc1ncnc(NCCC#Cc2ccccc2)c1Cc1ccccc1 [compound 372] | 0 to 60 | 0 to 60 |  | 0 to 60 | 157 to 158
40 | C(#Cc1ccccc1)CCNc1ncnc2[nH]cnc12 [compound 378] | 0 to 60 | 0 to 60 |  | 0 to 60 | 207 to 208
